{"source": "patent US20090233342A1", "about": "“HETEROLOGOUS EXPRESSION OF PROTEORHODOPSIN PHOTOSYSTEM” (priority 2007, published 2009)", "key": {"PR^+ E. coli cells": {"system": "PR^+ E. coli cells", "assay_type": "cell-based, Escherichia coli", "conditions": "for effect on photophosphorylation (light-driven ATP synthesis, ΔATP light minus dark): PR^+ HF10—19P19 cells, CCCP 25 μM (2 h dark preincubation), DCCD 1 mM (20 h dark preincubation)"}, "HF10—19P19 cells": {"system": "HF10—19P19 cells", "experiment": "Proton-pumping assay (light-driven pH change of cell suspension)", "assay_type": "cell-based, Escherichia coli", "conditions": "PR^+ HF10—19P19 cells; CCCP 25 μM (2 h dark preincubation), DCCD 1 mM (20 h dark preincubation)", "protocol": "FIG. 3. Light-activated, PR-enabled photophosphorylation in E. coli. (A) Diagram of the proposed mechanism of PR-dependent ATP synthesis. The effects of the inhibitors used are indicated. (B) Proton-pumping assays with HF10—19P19 cells. pH measurements are expressed as the pH change respect to the pH at time 0 for each sample. CCCP, 25 μM; DCCD, 1 mM. Gray boxes indicate dark periods. (C) ATP assays with HF10—19P19 cells. Results are expressed as the difference between the ATP level in the light and the ATP level in the dark, ΔATP, for each treatment.\nFosmid Library. The HOT—10m fosmid library screened in this work has been described previously (14). It contains DNA from a planktonic sample collected 10 m below the surface at the ALOHA station (22°45′ N, 158°W) of the Hawaii Ocean Time series (HOT) cloned into the copy-controlled pCC1FOS fosmid vector (Epicentre Biotechnologies, Madison, Wis.). The library host, E. coli EPI300 (Epicentre Biotechnologies), supports the copy-control option of pCC1FOS. Screening for PR Expression. High-density colony macroarrays [12,280 clones of the HOT—10m library (ref. 14)] were prepared on a Performa II filter (Genetix Ltd., Boston, Mass.) by using a Q-PixII robot (Genetix Ltd.). […] The color phenotype of individual Tn5-insertion clones was analyzed on LB plates containing chloramphenicol, kanamycin, and 0.02% L-arabinose as above. […]"}}}
{"compound": "C(=NC1CCCCC1)=NC1CCCCC1", "note": "[DCCD, N,N′-dicyclohexylcarbodiimide]", "values": [{"measurement": "effect on photophosphorylation (light-driven ATP synthesis, ΔATP light minus dark)", "setting": "PR^+ E. coli cells", "value": "completely abolished"}, {"measurement": "effect on light-driven decrease in pH (PR-catalyzed proton translocation)", "setting": "HF10—19P19 cells", "value": "did not affect"}]}
{"compound": "O=C(O)CCC(=O)O", "note": "[succinate]", "values": [{"measurement": "net gain of ATP by oxidative phosphorylation", "setting": "PR^+ E. coli cells; 5 min after addition of 0.2% succinate to PR^+ cells in the dark, data not shown", "value": "9×10^5 ATP molecules per live cell"}]}
{"compound": "N#CC(C#N)=NNc1cccc(Cl)c1", "note": "[CCCP, carbonylcyanide m-chlorophenylhydrazone]", "values": [{"measurement": "effect on photophosphorylation (light-driven ATP synthesis, ΔATP light minus dark)", "setting": "PR^+ E. coli cells", "value": "completely abolished"}, {"measurement": "effect on light-driven decrease in pH (PR-catalyzed proton translocation)", "setting": "HF10—19P19 cells", "value": "completely abolished"}]}
